Results as given in patent US8222210B2 (priority 2005, dated 2012).
Each block holds one molecule with its values, some of them ahead of it.

Assays:
NK1 receptor [1] = assay: rabbit iris sphincter smooth muscle contraction; type: cell-based, New Zealand White rabbits; details: for biological activity relative to SP: rabbit iris sphincter muscle contraction
Source text: The biological assay chosen for this study was smooth muscle contraction with the rabbit iris sphincter. […] The conformational investigations involved ^1H-NMR analyses of a set of β-MeF-containing SP analogs, and a computational study of the effects that the introduction of a β-methyl group in the Phe^7 and/or Phe^8 residues has upon an energy minimized structure of the peptide, using the helical structure of SP derived by Young et al. (1994) as a starting point for the calculations.
New Zealand White rabbits were sacrificed by an i.v. overdose of sodium pentobarbital. The eyes were then enucleated and the iris/ciliary body was isolated. Central regions of the iris sphincter muscle was then isolated and the tissue bisected, producing two iris sphincter muscle preparations. The muscle strips were connected to a Grass force-displacement transducer with an initial loading force of 100 mg placed on the muscle. The tissue was then allowed to equilibrate for 60 minutes. Contractions were recorded by a Grass 7 Physiograph. Tissues were bathed at 37° C. in a 50 ml modified Ringer's solution (90 mM NaCl, 3.6 mM KCl, 20 mM HEPES (sodium salt), 0.6 mM MgCl, 7.5 mM Na2SO4, 1.4 mM Ca-gluconate, 20 mM NaHCO3, 0.6 mM MgSO4, 0.6 mM K2HPO4 and 26 mM glucose). The Ringer's solution was gassed with 95% air/5% CO2 (pH 7.4). […] To block potential proteolytic effects the following proteolysis inhibitors were added: 1 μM thiorphan, 1 μM phosphoramidon, 1 μM captopril, 3 μg/ml leupeptin, and 3 μg/ml chymostatin.
To evaluate the viability of each muscle preparation, maximum contraction was determined by a 10^−5 M dose of carbachol at the beginning and end of each experiment. Following the initial carbachol dose, tissues were washed by three exchanges of Ringer's solutions. Previous studies have shown that this is sufficient to remove carbachol from these solutions and to return the resting tension to normal values. Each peptide was then evaluated for its ability to induce sphincter muscle contraction, and dose-response curves (from 2×10^−11 to 7×10^−7 M) were determined. A minimum of four determinations were performed for each experimental condition. The dose response curves were fit by means of a nonlinear regression analysis program (Sigma Plot®, Jandel Scientific).
Therefore, since the binding of SP to the NK1 and NK3 receptors in the rabbit iris differs by a factor of over 20, it is reasonable to assume that the contraction of the rabbit iris sphincter by βMeF-containing SP analogs primarily reflect the activation of the NK1 receptor.

cellular growth = cellular growth promoting activity (description); type: cell-based
NK1 receptor [2] = molecular target: NK1 receptor (Homo sapiens, UniProt P25103); details: cited from earlier work
NK1 receptor (Homo sapiens, UniProt P25103), sequence (P25103 whole entry, species assumed): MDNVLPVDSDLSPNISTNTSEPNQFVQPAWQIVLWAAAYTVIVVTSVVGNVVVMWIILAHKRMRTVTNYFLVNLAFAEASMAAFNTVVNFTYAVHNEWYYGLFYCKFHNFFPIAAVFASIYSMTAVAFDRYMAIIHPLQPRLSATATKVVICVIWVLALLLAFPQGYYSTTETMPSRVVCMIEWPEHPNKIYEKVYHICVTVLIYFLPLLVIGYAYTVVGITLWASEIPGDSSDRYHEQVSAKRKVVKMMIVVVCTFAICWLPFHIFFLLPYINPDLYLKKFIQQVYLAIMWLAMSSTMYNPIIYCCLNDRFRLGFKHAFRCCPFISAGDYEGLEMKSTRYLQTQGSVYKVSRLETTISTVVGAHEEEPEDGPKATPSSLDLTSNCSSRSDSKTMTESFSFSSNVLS

[3] = test system: full thickness skin punch wounds; assay: full thickness skin punch wound healing in a rat model (topical, AQUAPHOR); type: in vivo, Sprague-Dawley rats; details: for percentage decrease of the wound area versus control wounds (paired T-test): SP p<0.025, selenocystamine at the 0.05 level; for % decrease in wound size (wound area day 6 compared with day 0): rat punch wound, topical once a day, SP 0.05%, selenocystamine 10 ug Se/ml
Description: In addition, selenocystamine was tested as a potential wound treatment at the same time.
Twenty-one male Sprague-Dawley rats weighing between 300-350 g were used in this study. The rats were housed in the temperature controlled vivarium at Texas Tech Health Science Center with a 12-hour alternating light cycle, and were provided water and rat chow ad libitum. Animals were allowed several days of adjustment upon arrival before the surgery to get rehydrated and familiar with the environment. The study protocol was approved by the Texas Tech University Health Sciences Center Animal Care and Use Committee which assured that the animals received humane care.
On the day of the surgery (day 0), the rats were weighed and anesthetized with 1 ml/kg intraperitoneal (IP) injection of the solution made up of 3 parts XYLAZINE® and 7 parts of KETASET®. The animals' backs and necks were shaved and prepared aseptically. Lack of response to tail pinch and absence of a righting reflex were used as indications that anesthesia was adequate. Supplemental anesthetic was administered IP as necessary to maintain an adequate anesthesia.
A 7 mm-diameter punch (George Tiemann & Co.) was used to introduce the punch wound. The procedure was to fold the skin along the sagittal axis and put it down left or right side (rotate animal by animal) against a hard surface, then to thrust the punch through the two layers of skin. In this way, two identical punch wounds were obtained. Four wounds were introduced on each animal. The four wounds were arranged in two columns parallel to the sagittal axis and two rows parallel to the transverse axis.
After the wound procedure, three different treatments were assigned to the wounds. […] The two under were assigned selenocystamine treatment. For the control wound, a drop of normal saline was applied followed by a layer of AQUAPHOR™ to cover the wound. For the SP wound, a drop of 0.05% (0.5 mg/ml) SP water solution was applied followed by a layer of 0.05% (0.5 mg/g) SP-AQUAPHOR™ to cover the wound. For the selenocystamine wounds, a drop of selenocystamine water solution (10 ug Se/ml) was applied to each wound followed by a layer of selenocystamine-AQUAPHOR™ ([…]) to cover the wound. Then gauze and tape were applied to secure the wound. The animals were held under warming lights and observed until they were fully recovered from the anesthesia and then were returned to the vivarium. All the treatment agents and placebo were stored in a refrigerator. Dressing changes and treatments were performed once a day until the animals were sacrificed on day 6. The assignments and dosage of the treatments were as described above.
Following the surgery, the wounds were measured in two dimensions: sagittal and transverse. Photographs were taken using a PENTAX® ESPIO 928 camera and Kodak® ISO 200 color film. After the animals were sacrificed on day 6, the eschars covering the wounds were removed. Then the wounds were again measured in two dimensions, and photographs were taken.
The animals were sacrificed on day 6 after the surgery by euthanasia with […]® (Sodium Pentobarbital, 7.9% isopropanol, euthanasia solution). The entire wound plus a 1 mm margin of normal skin from each of the test and control wound sites on each animal was excised and preserved in buffered formalin.
The product obtained by multiplying the two measurements of each wound was referred to as the area of the wound. The percentage of the decrease of the wound area on day 6 compared with day 0 was used to evaluate the rate of healing. Since the exact time of wound healing was difficult to determine, day 6 was chosen.
Mean and standard deviations were determined on the difference of the percentage of the wound area decrease between each treatment and the control. Significant differences between treatments and the control were determined by paired T-test to see if the percentage of the decrease in wound area was greater for the treated wounds than for the control wound. […]

full thickness wound = assay: full thickness 7 mm punch wound in the back of rats, hyaluronic acid vehicle (FIG. 10); type: in vivo; details: after 6 days, 16 rats, both wounds received hyaluronic acid vehicle
Source text: FIG. 10 represents the percent healing after 6 days for a full thickness wound in the back of 16 different rats. The initial wound size was a 7 mm punch wound. Each rat received two wounds, a control (no SP) and an SP treated wound. Both wounds received a hyaluronic acid vehicle.
Supplemental growth factors have the ability to accelerate wound healing in a variety of experimental animal models (EE). This has even led to clinical trials. However, the human studies have not been as successful as the animal models. Due to the complexity of the interaction of different growth factors, it is likely that the right combination of different growth factors has not been explored.

NK1 and NK3 receptors = details: rabbit iris; cited from earlier work

- biological activity relative to SP (NK1 receptor [1]): slightly more active than SP
Molecule: 7S-(βMeF)SP: Substance P analog with S-β-methylphenylalanine at position 7

- biological activity relative to SP (NK1 receptor [1]; listed as S-β-MeF into position 8 of SP): ten-fold reduction
Molecule: 8S-(βMeF)SP: Substance P analog with S-β-methylphenylalanine at position 8
- biological activity relative to SP (NK1 receptor [1]): the least active of the monosubstituted analogs

- biological activity relative to SP (NK1 receptor [1]): equipotent (to SP)
- biological activity relative to SP (NK1 receptor [1]; listed as 7S,8R-(β-MeF)2SP): do not significantly alter the activity
Molecule: 7S,8R-(βMeF)2SP: Substance P analog with S-β-methylphenylalanine at position 7 and R- at position 8

- biological activity relative to SP (NK1 receptor [1]): most active disubstituted SP analogs
- biological activity relative to SP (NK1 receptor [1]; listed as 7R,8S-(β-MeF)2SP): enhance the activity
Molecule: 7R,8S-(βMeF)2SP: Substance P analog with R-β-methylphenylalanine at position 7 and S- at position 8

- biological activity relative to SP (NK1 receptor [1]): the most active SP analog
- biological activity relative to SP (NK1 receptor [1]; listed as R-β-MeF into position 8 of SP): four-fold enhancement
Molecule: 8R-(βMeF)SP: Substance P analog with R-β-methylphenylalanine at position 8

- biological activity relative to SP (NK1 receptor [1]): most active disubstituted SP analogs
- biological activity relative to SP (NK1 receptor [1]; listed as 7S,8S-(β-MeF)2SP): enhance the activity
Molecule: 7S,8S-(βMeF)2SP: Substance P analog with S-β-methylphenylalanine at positions 7 and 8

- biological activity relative to SP (NK1 receptor [1]): equipotent to SP
Molecule: 7R-(βMeF)SP: Substance P analog with R-β-methylphenylalanine at position 7

The remaining lines, values behind:

Molecule: SEQ ID NO:9: substitution peptide where norleucine has been substituted for the C-terminus methionine in Substance P (RPKPQQFFGLX; (11)..(11) Norleucine; listed as Homo sapiens)
- cellular growth promoting activity (cellular growth): enhanced activity under at least some treatment conditions

Molecule: QFFGLM (SEQ ID NO:8) (listed as Homo sapiens) [SP6-11, reference compound]
- cellular growth promoting activity (cellular growth): active in promoting cellular growth
- activity as % of that found for the whole SP molecule (NK1 receptor [2]): 50-90%

Molecule: 7R,8R-(βMeF)2SP: Substance P analog with R-β-methylphenylalanine at positions 7 and 8
- biological activity relative to SP (NK1 receptor [1]): the least active analog
- biological activity relative to SP (NK1 receptor [1]; listed as 7R,8R-(β-MeF)2SP): diminish the biological activity by a factor of ten

Molecule: NCC[Se][Se]CCN [selenocystamine, reference compound]
- percentage decrease of the wound area versus control wounds (paired T-test) ([3]; day 6): not significantly higher than the control
- % decrease in wound size (wound area day 6 compared with day 0) ([3]; day 6): 31.8±18.3%
- wound enlargement (one wound of the group) ([3]; six day period): 2.9%

Molecule: RPKPQQFFGLM (SEQ ID NO:1) [SP]
- percentage decrease of the wound area versus control wounds (paired T-test) ([3]; day 6): significantly higher than that of the control wounds
- % decrease in wound size (wound area day 6 compared with day 0) ([3]; day 6): 41.6±15.0%
- wound with the greatest decrease in size ([3]; single wound of the treatment group, day 6): 66.7%
- control wounds showing more percent healing than the SP wound on the same rat (full thickness wound): 4 out of 16
- doses producing a rapid increase in the force of contraction (NK1 receptor [1]; rabbit iris sphincter muscle): greater than 10^−10 M
- maximum effective dose (NK1 receptor [1]; rabbit iris sphincter muscle): 10^−7 M
- factor by which binding to NK1 and NK3 receptors differs (NK1 and NK3 receptors): over 20
